{"source": "patent US20250319061A1", "about": "“COMBINATION TREATMENT FOR ADENOCARCINOMA” (The General Hospital Corporation, priority 2022, published 2025)", "key": {"TAK1": {"target": "T1, TAK1 (Homo sapiens, UniProt O43318)", "T1 sequence (O43318 1-606)": "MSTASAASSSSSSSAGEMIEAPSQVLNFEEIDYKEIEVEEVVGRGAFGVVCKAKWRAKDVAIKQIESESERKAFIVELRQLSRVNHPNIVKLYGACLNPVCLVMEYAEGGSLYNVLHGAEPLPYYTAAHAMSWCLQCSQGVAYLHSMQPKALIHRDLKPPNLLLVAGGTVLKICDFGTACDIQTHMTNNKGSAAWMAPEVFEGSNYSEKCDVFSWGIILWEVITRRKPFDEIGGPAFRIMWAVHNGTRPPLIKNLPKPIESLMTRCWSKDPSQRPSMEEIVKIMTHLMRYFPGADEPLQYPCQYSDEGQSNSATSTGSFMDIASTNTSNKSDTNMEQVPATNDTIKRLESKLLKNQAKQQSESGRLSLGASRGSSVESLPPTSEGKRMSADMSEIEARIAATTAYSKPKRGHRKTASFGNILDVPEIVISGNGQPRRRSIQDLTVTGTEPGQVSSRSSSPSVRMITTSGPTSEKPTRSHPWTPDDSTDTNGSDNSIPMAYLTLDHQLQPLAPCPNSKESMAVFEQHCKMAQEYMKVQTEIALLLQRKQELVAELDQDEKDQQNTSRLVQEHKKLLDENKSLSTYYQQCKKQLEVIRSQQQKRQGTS", "T1 sequence (Q15750 1-504 partner)": "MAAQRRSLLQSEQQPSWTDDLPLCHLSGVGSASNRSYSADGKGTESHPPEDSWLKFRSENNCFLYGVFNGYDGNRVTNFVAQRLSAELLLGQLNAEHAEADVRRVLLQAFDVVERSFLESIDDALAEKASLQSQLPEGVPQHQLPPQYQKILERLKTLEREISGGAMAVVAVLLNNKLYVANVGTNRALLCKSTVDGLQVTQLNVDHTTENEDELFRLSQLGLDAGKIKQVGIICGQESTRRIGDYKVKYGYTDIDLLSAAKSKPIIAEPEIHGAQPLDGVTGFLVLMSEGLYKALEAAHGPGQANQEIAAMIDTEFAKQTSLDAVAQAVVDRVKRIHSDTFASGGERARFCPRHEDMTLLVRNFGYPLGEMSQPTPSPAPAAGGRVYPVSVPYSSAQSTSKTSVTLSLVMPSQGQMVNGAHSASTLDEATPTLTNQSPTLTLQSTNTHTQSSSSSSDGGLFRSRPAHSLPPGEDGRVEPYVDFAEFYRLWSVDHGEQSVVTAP", "conditions": "cited from earlier work"}, "PDAC cell lines [1]": {"system": "PDAC cell lines", "experiment": "Clonogenic assay (crystal violet, colony area by Image J)", "assay_type": "cell-based, human", "conditions": "2 weeks", "procedure": "(§1) FIGS. 3A-D. Graphs showing relative cell growth of (a) QM and (b) E PDACs in 3D condition upon FFX and/or Oxo treatment with indicated concentrations for 2 weeks. Cell viability was measured using CellTiter Glo assay. Images showing growing PDACs (in 3D) under these conditions. (c) Graphs with results for clonogenic assay upon FFX and/or Oxo treatment with indicated concentrations for 2 weeks. Then, cells were fixed with 3.7% PFA and stained with crystal violet. Relative colony area was measured using Image J. (d) Images with 2D (Boyden chamber) and 3D invasion assays (type I collagen embedded) of PDAC cell lines incubated with Oxo for 3 days.\nFIGS. 4A-F. Effects of TAK1 Knockout in PDAC EMT Plasticity. (a) Western blots showing complete ablation of TAK1 across PDAC cell lines. (b) Heatmaps based on RNA-ISH and total RNA-seq showing EMT signatures in TAK1 KO PDAC6 and PDAC9 cell lines. (c) Clonogenic assays for WT (non-targeting single guide RNA, sgRNA) and TAK1 KO cell lines treated with FFX for 2 weeks. Colony area was determined by Image J. (d) Images with 2D invasion assay (Boyden chamber) in TAK1 KO PDAC cell lines. (e) Graphs confirming functional ablation of TAK1 represented by TAK1 downstream activity of p-MEK1/2 and p-ERK1/2 under TGFbeta stimulation. (f) Graphs with results for clonogenic assay upon FFX and/or Takinib treatment with indicated concentrations for 2 weeks."}, "[2]": {"system": "QM and E PDAC monoculture and co-culture with CAF1", "experiment": "FFX dose response in PDAC monoculture and co-culture with CAF1", "assay_type": "cell-based, human", "conditions": "both monocultures and CAF co-culture conditions", "excerpt": "(a) Dose response curves in QM and E PDAC monoculture and co-culture with CAF1, as well as CAF1 monoculture, following FFX treatment. (b) FFX IC50 for QM and E PDAC monoculture versus co-culture with CAF1. […] (a) Dose response curves in QM and E PDAC monoculture following combination 5z-7-oxozeaenol and FFX treatment. (b) Dose response curves in QM and E PDAC co-culture with CAF1 following combination 5z-7-oxozeaenol and FFX treatment. (c) Dose response curves in CAF1 monoculture following combination 5z-7-oxozeaenol and FFX treatment. […] (a) Dose response curves in QM and E PDAC monoculture following combination losartan and FFX treatment. (b) Dose response curves in QM and E PDAC co-culture with CAF1 following combination losartan and FFX treatment. (c) Dose response curves in CAF1 monoculture following combination losartan and FFX treatment. PDAC cells were co-cultured with fibroblasts (CAF) to more closely mimic the tumor microenvironment."}, "QM and E PDACs": {"system": "QM and E PDACs", "experiment": "Relative cell growth in 3D condition upon FFX and/or Oxo treatment (CellTiter Glo)", "assay_type": "cell-based, human", "conditions": "for killing of / sensitivity to FFX of QM cells when Oxo is added to FOLFIRINOX: QM cells compared to E cells, 3D, 2 weeks", "procedure": "Cell viability was measured using CellTiter Glo assay. […] Then, cells were fixed with 3.7% PFA and stained with crystal violet. Relative colony area was measured using Image J. (d) Images with 2D (Boyden chamber) and 3D invasion assays (type I collagen embedded) of PDAC cell lines incubated with Oxo for 3 days."}, "FLT3": {"target": "T2, FLT3 (Homo sapiens, UniProt P36888)", "T2 sequence (P36888 27-993)": "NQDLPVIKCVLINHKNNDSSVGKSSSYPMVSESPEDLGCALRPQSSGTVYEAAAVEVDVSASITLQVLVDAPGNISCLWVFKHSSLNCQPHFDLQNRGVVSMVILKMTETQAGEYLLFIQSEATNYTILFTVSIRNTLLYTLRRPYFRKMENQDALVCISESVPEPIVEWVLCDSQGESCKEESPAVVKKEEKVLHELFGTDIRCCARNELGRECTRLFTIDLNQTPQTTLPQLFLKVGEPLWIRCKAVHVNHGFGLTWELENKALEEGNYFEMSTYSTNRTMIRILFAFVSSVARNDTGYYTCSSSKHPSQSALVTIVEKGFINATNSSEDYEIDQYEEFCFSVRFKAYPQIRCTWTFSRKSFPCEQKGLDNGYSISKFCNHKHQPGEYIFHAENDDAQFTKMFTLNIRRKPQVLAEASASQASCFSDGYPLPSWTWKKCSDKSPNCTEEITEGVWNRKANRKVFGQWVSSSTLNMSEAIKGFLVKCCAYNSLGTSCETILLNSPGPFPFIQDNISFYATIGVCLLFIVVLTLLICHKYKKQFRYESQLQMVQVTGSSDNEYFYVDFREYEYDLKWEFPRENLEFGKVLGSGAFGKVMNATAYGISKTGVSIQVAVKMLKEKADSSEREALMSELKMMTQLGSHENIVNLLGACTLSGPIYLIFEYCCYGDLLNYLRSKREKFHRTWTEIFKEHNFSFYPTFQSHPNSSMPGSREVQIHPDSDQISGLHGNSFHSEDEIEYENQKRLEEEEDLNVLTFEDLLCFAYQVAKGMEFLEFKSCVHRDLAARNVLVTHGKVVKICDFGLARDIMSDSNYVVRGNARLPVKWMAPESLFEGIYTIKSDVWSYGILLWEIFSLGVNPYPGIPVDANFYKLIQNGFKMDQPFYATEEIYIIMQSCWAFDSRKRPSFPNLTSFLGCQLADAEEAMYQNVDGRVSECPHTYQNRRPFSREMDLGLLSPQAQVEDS", "conditions": "cited from earlier work"}, "MEK": {"system": "MEK", "conditions": "cited from earlier work"}, "[3]": {"system": "patient-derived PDAC cell lines", "experiment": "RNA-ISH and total RNA sequencing of E/QM (EMT) signatures after Oxo treatment", "assay_type": "cell-based, human", "conditions": "for E gene expression (RNA-ISH and RNA sequencing) / QM gene expression (RNA-ISH and RNA sequencing): Oxo 10 μM, 10 days, across PDAC cell lines", "procedure": "(c) PDAC3, 9 and 6 cells were treated with Oxo (10 μM) for 10 days in tumorsphere (3D) condition."}, "PDAC cell lines [4]": {"system": "PDAC cell lines", "experiment": "2D (Boyden chamber) and 3D (type I collagen embedded) invasion assays", "assay_type": "cell-based, human", "conditions": "Oxo for 3 days", "procedure": "as §1"}, "CAF1 monoculture": {"system": "CAF1 monoculture", "experiment": "Dose response and combination treatment in CAF1 monoculture", "assay_type": "cell-based", "conditions": "combination with FFX", "from_the_text": "FIGS. 7A-C. […] FIGS. 8A-C. […] Values indicate percent killing, as compared to untreated cells, such that 0 indicates no killing and 100 indicates all cells killed. (e) Combination drug treatments of CAF1 monoculture. Values indicate percent killing, as compared to untreated cells, such that 0 indicates no killing and 100 indicates all cells killed. […] In order to evaluate whether oxo could synergize with FOLFIRINOX, we performed combinatorial drug treatment in PDAC monoculture and PDAC/CAF co-culture settings (FIG. 9A). […] In order to assess for synergistic activity between Oxo and FOLFIRINOX, we used the Bliss independence model to analyze our drug combination experiments (Bliss, 1939; Yadav et al., 2015)."}, "[5]": {"system": "PDAC monoculture and PDAC/CAF co-culture", "experiment": "Combinatorial drug treatment, percent killing and Bliss synergy", "assay_type": "cell-based, human", "from_the_text": "FIGS. 9A-E. Combinational drug treatment (Oxo+FFX) in PDAC alone or PDAC+CAF coculture. […] (b) Combination drug treatments of PDAC 3 and PDAC 6, as monoculture or co-culture with CAF1. Values indicate percent killing, as compared to untreated cells, such that 0 indicates no killing and 100 indicates all cells killed. (c) Bliss plots of synergistic activity between 5z-7-oxozeaenol and FFX, where positive values represent synergistic activity, negative values represent anti-synergistic activity, and 0 represents no synergy. Synergy data are based on values from 8B. (d) Combination drug treatments of PDAC 8 and PDAC 9, as monoculture or co-culture with CAF1. Values indicate percent killing, as compared to untreated cells, such that 0 indicates no killing and 100 indicates all cells killed. (e) Combination drug treatments of CAF1 monoculture. Values indicate percent killing, as compared to untreated cells, such that 0 indicates no killing and 100 indicates all cells killed. FIG. 10. Combinational drug treatment (Losartan+FFX) in PDAC alone or PDAC+CAF coculture. Combination drug treatments of PDAC 3 and PDAC 6, as monoculture or co-culture with CAF1. Values indicate percent killing, as compared to untreated cells, such that 0 indicates no killing and 100 indicates all cells killed. In order to evaluate whether oxo could synergize with FOLFIRINOX, we performed combinatorial drug treatment in PDAC monoculture and PDAC/CAF co-culture settings (FIG. 9A). […] In order to assess for synergistic activity between Oxo and FOLFIRINOX, we used the Bliss independence model to analyze our drug combination experiments (Bliss, 1939; Yadav et al., 2015)."}}}
{"smiles": "CCCn1/c(=N/C(=O)c2cccc(C(N)=O)c2)[nH]c2ccccc21", "note": "[Takinib, reference compound]", "values": [{"measurement": "inhibition of TAK1", "setting": "TAK1", "value": "selective inhibitor"}, {"measurement": "sensitization of FOLFIRINOX response (clonogenic assay)", "setting": "PDAC cell lines [1]; QM PDAC cells, FFX and/or Takinib", "value": "not able to sensitize"}]}
{"smiles": "COc1cc(O)c2c(c1)/C=C/C[C@H](O)[C@H](O)C(=O)/C=C\\C[C@H](C)OC2=O", "note": "[Oxo, (5z)-7-oxozeaenol]", "values": [{"measurement": "effect on PDAC cell response to FOLFIRINOX", "setting": "[2]", "value": "sensitized"}, {"measurement": "sensitivity to Oxo as a single agent", "setting": "QM and E PDACs; E cells BxPC3 and DAN-G", "value": "sensitive"}, {"measurement": "killing of / sensitivity to FFX of QM cells when Oxo is added to FOLFIRINOX", "setting": "QM and E PDACs", "value": "synergistic increased killing"}, {"measurement": "killing of / sensitivity to FFX of QM cells when Oxo is added to FOLFIRINOX", "setting": "QM and E PDACs; listed as (5z)-7-Oxozeaenol", "value": "synergistically increased"}, {"measurement": "inhibition of FLT3", "setting": "FLT3", "value": "inhibit"}, {"measurement": "inhibition of MEK", "setting": "MEK", "value": "inhibit"}, {"measurement": "E gene expression (RNA-ISH and RNA sequencing)", "setting": "[3]; listed as (5z)-7-Oxozeaenol", "value": "enrichment"}, {"measurement": "QM gene expression (RNA-ISH and RNA sequencing)", "setting": "[3]; listed as (5z)-7-Oxozeaenol", "value": "decreased"}, {"measurement": "E gene expression (RNA-ISH and RNA sequencing)", "setting": "[3]; listed as oxo", "value": "increased"}, {"measurement": "QM gene expression (RNA-ISH and RNA sequencing)", "setting": "[3]; listed as oxo", "value": "significantly suppressed"}, {"measurement": "mesenchymal gene expression (Hallmark EMT geneset)", "setting": "[3]; PDAC 3, 6, and 8", "value": "significantly decreased"}, {"measurement": "mesenchymal gene expression (Hallmark EMT geneset)", "setting": "[3]; PDAC 9", "value": "numerically decreased"}, {"measurement": "global mesenchymal gene expression (200 genes of Hallmark EMT geneset)", "setting": "[3]; all lines tested, with vs without Oxo", "value": "numerically lower"}, {"measurement": "invasiveness / invasion", "setting": "PDAC cell lines [4]", "value": "significant reduction"}, {"measurement": "migratory abilities / migration", "setting": "PDAC cell lines [4]", "value": "significant reduction"}, {"measurement": "invasiveness / invasion", "setting": "PDAC cell lines [4]; listed as (5z)-7-Oxozeaenol", "value": "reduced"}, {"measurement": "migratory abilities / migration", "setting": "PDAC cell lines [4]; listed as (5z)-7-Oxozeaenol", "value": "reduced"}, {"measurement": "effect on CAFs alone", "setting": "CAF1 monoculture", "value": "little effect"}, {"measurement": "inhibition of TAK1", "setting": "TAK1", "value": "inhibit"}, {"measurement": "cell killing (cell viability)", "setting": "[5]; increasing doses, 3 days, monoculture and co-culture", "value": "dose-dependent cell killing"}, {"measurement": "colony formation", "setting": "PDAC cell lines [1]; Oxo-treated PDACs", "value": "significant reduction"}]}
{"smiles": "CCCCc1nc(Cl)c(CO)n1Cc1ccc(-c2ccccc2-c2nn[nH]n2)cc1", "note": "[Losartan, reference compound]", "values": [{"measurement": "effect on PDAC cell response to FOLFIRINOX", "setting": "[2]", "value": "did not affect"}, {"measurement": "effect on CAFs alone", "setting": "CAF1 monoculture", "value": "no effect"}, {"measurement": "additional killing when combined with FOLFIRINOX", "setting": "[5]; PDAC 3 and PDAC 6, monoculture or co-culture with CAF1", "value": "did not demonstrate any additional killing"}, {"measurement": "cell growth when combined with FOLFIRINOX", "setting": "[5]; low FOLFIRINOX settings", "value": "increased cell growth"}]}
